Experimental data taken from patent US20210253642A1, “CALPAIN MODULATORS AND THERAPEUTIC USES THEREOF BACKGROUND” (Blade Therapeutics, Inc., priority 2018, published 2021).

Legend:
[1] = from CC(C)[C@H](NC(=O)CC(Sc1ccccc1)[C@H](COC(=O)[C@@H](N)Cc1ccc(O[Si](C)(C)C(C)(C)C)cc1)NC(=O)OC(C)(C)C)C(=O)O; amide bond; FDPP; DMF; 6.97 mM; 20.0 °C; 8.0 h
Human Calpain 1/NS1 = biological target: T1, Human Calpain 1/NS1 (Homo sapiens, UniProt P07384); experiment: Calpain continuous fluorescence (FRET) inhibition assay; assay type: biochemical; conditions: Column A; SensoLyte 520 FRET substrate, pH 7.5, 25C
T1 sequence (P07384 1-714): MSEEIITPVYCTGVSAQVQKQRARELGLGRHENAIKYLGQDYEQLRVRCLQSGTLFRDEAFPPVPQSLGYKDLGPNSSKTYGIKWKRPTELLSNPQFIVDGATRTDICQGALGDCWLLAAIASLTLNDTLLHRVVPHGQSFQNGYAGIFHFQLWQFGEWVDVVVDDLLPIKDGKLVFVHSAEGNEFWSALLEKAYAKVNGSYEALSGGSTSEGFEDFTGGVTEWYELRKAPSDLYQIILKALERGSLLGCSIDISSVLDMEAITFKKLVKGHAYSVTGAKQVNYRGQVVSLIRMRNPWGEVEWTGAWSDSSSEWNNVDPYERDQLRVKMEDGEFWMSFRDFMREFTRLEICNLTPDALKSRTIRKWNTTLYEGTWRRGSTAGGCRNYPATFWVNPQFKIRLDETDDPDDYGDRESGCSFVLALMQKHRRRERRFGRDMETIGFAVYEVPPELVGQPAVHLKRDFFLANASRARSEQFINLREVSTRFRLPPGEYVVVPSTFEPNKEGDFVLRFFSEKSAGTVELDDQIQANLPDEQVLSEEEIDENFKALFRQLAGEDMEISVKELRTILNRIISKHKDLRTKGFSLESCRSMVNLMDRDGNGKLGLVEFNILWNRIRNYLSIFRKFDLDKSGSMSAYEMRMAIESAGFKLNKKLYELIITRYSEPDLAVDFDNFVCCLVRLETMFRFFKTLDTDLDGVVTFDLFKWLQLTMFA
T1 sequence (P04632 1-268 partner): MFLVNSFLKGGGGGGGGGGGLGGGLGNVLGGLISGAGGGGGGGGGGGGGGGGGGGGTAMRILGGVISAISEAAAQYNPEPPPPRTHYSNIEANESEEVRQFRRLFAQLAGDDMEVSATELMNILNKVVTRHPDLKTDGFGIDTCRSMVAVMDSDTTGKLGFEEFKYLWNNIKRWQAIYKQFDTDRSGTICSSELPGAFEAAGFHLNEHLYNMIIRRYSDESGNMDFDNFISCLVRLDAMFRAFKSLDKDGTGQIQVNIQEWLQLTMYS
Protocol: (§1) Calpain 1, 2, and 9 activity and inhibition thereof was assessed by means of a continuous fluorescence assay. The SensoLyte 520 Calpain substrate (Anaspec Inc.) was optimized for detecting calpain activity. This substrate contains an internally quenched 5-FAM/QXLTM 520 FRET pair. Calpains 1, 2, and 9 cleave the FRET substrate into two separate fragments resulting in an increase of 5-FAM fluorescence that is proportional to calpain activity
(§2) Assays were typically setup in black 384-well plates using automated liquid handling as follows. Calpain assay base buffer typically contains 50 mM Tris, pH 7.5, 100 mM NaCl and 1 mM DTT. Inhibitors were serially diluted in DMSO and used to setup 2× mixtures with calpains in the aforementioned buffer. After incubation at ambient temperature (25C), the reaction was initiated by adding a 2× mix of the fluorescent peptide substrate and CaCl2) (required for in-situ calpain activation) in the same buffer. Reaction progress curve data were typically collected for 10 min using excitation/emission wavelengths of 490 nm/520 nm on SpectraMax i3x or the FLIPR-Tetra plate readers (Molecular Devices Inc.). Reaction rates were calculated from progress curve slopes typically over 1-5 min. Dose response curves (rate vs. log inhibitor concentration) were typically fit to a 4-parameter logistic function to extract IC50 values.

Human Calpain 2/NS1 = biological target: T2, Human Calpain 2/NS1 (Homo sapiens, UniProt P17655); experiment: as above; assay type: biochemical; conditions: Column B; SensoLyte 520 FRET substrate, pH 7.5, 25C
T2 sequence (P17655 1-700): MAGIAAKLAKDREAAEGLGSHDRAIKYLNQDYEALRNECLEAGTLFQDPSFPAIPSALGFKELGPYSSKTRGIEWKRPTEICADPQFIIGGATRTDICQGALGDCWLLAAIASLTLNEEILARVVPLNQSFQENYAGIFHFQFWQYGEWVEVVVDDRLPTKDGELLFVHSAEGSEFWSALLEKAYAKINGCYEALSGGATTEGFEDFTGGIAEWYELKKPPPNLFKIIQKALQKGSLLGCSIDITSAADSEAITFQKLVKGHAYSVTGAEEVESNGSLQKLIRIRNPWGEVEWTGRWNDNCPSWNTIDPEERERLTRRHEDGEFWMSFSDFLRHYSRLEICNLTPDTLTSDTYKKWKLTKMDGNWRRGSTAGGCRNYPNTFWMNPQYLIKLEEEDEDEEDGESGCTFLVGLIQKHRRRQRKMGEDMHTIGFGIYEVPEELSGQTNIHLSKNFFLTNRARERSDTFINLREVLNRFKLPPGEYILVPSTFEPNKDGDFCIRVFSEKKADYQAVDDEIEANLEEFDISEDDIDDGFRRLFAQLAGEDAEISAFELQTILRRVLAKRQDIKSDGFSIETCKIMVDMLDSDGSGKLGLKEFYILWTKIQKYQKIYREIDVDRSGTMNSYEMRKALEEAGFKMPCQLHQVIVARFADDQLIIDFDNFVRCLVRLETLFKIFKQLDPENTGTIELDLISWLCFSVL
T2 sequence (P04632 1-268 partner): T1 sequence (P04632 1-268 partner)
Protocol: as §1, §2

Human Calpain 9/NS1 = biological target: T3, Human Calpain 9/NS1 (Homo sapiens, UniProt O14815); experiment: as above; assay type: biochemical; conditions: Column C; SensoLyte 520 FRET substrate, pH 7.5, 25C
T3 sequence (O14815 1-690): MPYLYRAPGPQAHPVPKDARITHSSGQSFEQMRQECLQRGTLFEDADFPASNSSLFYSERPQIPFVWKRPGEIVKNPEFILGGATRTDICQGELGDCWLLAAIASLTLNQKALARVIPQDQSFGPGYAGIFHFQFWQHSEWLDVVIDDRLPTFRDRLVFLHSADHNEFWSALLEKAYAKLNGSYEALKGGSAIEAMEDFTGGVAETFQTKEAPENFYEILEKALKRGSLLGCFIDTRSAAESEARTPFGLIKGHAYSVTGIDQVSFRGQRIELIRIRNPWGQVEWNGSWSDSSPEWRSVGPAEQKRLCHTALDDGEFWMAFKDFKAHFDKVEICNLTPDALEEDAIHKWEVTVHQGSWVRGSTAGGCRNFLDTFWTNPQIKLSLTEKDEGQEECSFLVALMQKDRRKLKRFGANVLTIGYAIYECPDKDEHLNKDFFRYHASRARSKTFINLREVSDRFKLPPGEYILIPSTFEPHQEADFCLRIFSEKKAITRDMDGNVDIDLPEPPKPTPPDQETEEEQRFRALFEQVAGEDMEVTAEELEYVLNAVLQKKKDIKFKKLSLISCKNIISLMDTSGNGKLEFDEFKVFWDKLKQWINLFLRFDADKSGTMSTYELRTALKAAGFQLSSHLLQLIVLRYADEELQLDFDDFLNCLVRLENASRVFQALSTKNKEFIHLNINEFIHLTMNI
T3 sequence (P04632 1-268 partner): T1 sequence (P04632 1-268 partner)
Protocol: as §1, §2

Human Cathepsin B = biological target: T4, Human Cathepsin B (Homo sapiens, UniProt P07858); experiment: Cathepsin continuous fluorescence inhibition assay; assay type: biochemical; conditions: Column D; enzyme 25 nM, substrate 1 uM, pH 5.0, 30 minutes pre-incubation with inhibitor
T4 construct: purchased
Protocol: (§3) Cathepsin activity and inhibition thereof was assessed by means of a continuous fluorescence assay. All assays were run in 384 well format and utilized peptide substrates that liberate fluorescence upon protease catalyzed cleavage. FLIPR plate readers (Molecular Devices Inc.) were used to monitor reactions and extract initial rates which were then fit (four parameter logistic function) to obtain IC50 values. All enzymes are human. All enzymes and reagents were obtained commercially and are summarized in Tables 1 and 2 below along with assay conditions.

Human Cathepsin K = biological target: T5, Human Cathepsin K (Homo sapiens, UniProt P43235); experiment: Cathepsin continuous fluorescence inhibition assay; assay type: biochemical; conditions: Column E; enzyme 10 nM, substrate 1 uM, pH 5.5, 30 minutes pre-incubation with inhibitor
T5 construct: purchased
T5 sequence (P43235 115-329): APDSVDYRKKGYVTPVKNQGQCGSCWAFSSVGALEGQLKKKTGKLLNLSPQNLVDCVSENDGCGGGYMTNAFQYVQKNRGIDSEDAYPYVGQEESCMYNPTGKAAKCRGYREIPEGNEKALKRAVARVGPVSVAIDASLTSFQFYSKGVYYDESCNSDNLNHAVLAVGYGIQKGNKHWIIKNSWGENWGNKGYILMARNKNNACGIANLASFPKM
Protocol: as §3

Human Cathepsin L = biological target: T6, Human Cathepsin L (Homo sapiens, UniProt P07711); experiment: Cathepsin continuous fluorescence inhibition assay; assay type: biochemical; conditions: Column G; enzyme 0.025 nM, substrate 1 uM, pH 6.0, 30 minutes pre-incubation with inhibitor
T6 construct: purchased
T6 sequence (P07711 114-333): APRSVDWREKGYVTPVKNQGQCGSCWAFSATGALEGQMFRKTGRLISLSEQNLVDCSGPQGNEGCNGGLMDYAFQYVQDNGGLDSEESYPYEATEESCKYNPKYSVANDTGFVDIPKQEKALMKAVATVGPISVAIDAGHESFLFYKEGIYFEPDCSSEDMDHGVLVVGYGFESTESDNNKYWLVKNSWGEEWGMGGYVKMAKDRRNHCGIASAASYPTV
Protocol: as §3

Human Cathepsin S = biological target: T7, Human Cathepsin S (Homo sapiens, UniProt P25774); experiment: Cathepsin continuous fluorescence inhibition assay; assay type: biochemical; conditions: Column F; enzyme 6 nM, substrate 1 uM, pH 4.5, 30 minutes pre-incubation with inhibitor
T7 construct: purchased
T7 sequence (P25774 115-331): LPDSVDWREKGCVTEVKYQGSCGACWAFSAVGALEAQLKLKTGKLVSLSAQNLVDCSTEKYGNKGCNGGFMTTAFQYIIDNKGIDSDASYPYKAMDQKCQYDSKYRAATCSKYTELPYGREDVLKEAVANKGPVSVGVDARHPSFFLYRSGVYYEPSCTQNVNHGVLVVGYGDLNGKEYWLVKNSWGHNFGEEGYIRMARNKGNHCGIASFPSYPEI
Protocol: as §3

Compound | ring closure, yield of all isomers [1] [%] | IC50 (Human Calpain 1/NS1) [µM] | IC50 (Human Calpain 2/NS1) [µM] | IC50 (Human Calpain 9/NS1) [µM] | IC50 (Human Cathepsin B) [µM] | IC50 (Human Cathepsin K) [µM] | IC50 (Human Cathepsin L) [µM] | IC50 (Human Cathepsin S) [µM]
CC(C)[C@@H]1NC(=O)CC(Sc2ccccc2)[C@@H](NC(=O)OC(C)(C)C)COC(=O)[C@H](Cc2ccc(O[Si](C)(C)C(C)(C)C)cc2)NC1=O (some centres unmarked) | 39.4 | – | – | – | – | – | – | –
CC(C)[C@@H]1NC(=O)/C=C/[C@@H](NC(=O)[C@@H](NC(=O)OC(C)(C)C)C(C)C)COC(=O)[C@H](Cc2ccc(O)cc2)NC1=O [Compound 2, Tert-butyl ((S)-1-(((3S,6S,11R,E)-3-(4-hydroxybenzyl)-6-isopropyl-2,5,8-trioxo-1-oxa-4,7-diazacyclododec-9-en-11-yl)amino)-3-methyl-1-oxobutan-2-yl)carbamate] | – | 3 to 10 | < 3 | > 10 | < 3 | < 3 | < 3 | < 3
CC(C)[C@@H]1NC(=O)/C=C/[C@@H](NC(=O)[C@H](Cc2ccccc2)NC(=O)OC(C)(C)C)COC(=O)[C@H](Cc2ccc(O)cc2)NC1=O [Compound 14, tert-butyl ((s)-1-(((3S,6S,11R,E)-3-(4-hydroxybenzyl)-6-isopropyl-2,5,8-trioxo-1-oxa-4,7-diazacyclododec-9-en-11-yl)amino)-1-oxo-3-phenylpropan-2-yl)carbamate] | – | > 10 | > 10 | > 10 | 3 to 10 | < 3 | < 3 | < 3
CC(C)[C@@H]1NC(=O)/C=C/[C@@H](N)COC(=O)[C@H](Cc2ccc(O[Si](C)(C)C(C)(C)C)cc2)NC1=O [Compound 4, (3S,6S,11R,E)-11-amino-3-(4-((tert-butyldimethylsilyl)oxy)benzyl)-6-isopropyl-1-oxa-4,7-diazacyclododec-9-ene-2,5,8-trione] | – | > 10 | > 10 | > 10 | > 10 | < 3 | 3 to 10 | 3 to 10
CC(C)[C@@H]1NC(=O)/C=C/[C@@H](NC(=O)[C@@H](NC(=O)[C@H](Cc2ccc(O)cc2)NC(=O)OC(C)(C)C)C(C)C)COC(=O)[C@H](C)NC1=O [Compound 17, Tert-butyl ((S)-3-(4-hydroxyphenyl)-1-(((S)-1-(((3S,6S,11R,E)-6-isopropyl-3-methyl-2,5,8-trioxo-1-oxa-4,7-diazacyclododec-9-en-11-yl)amino)-3-methyl-1-oxobutan-2-yl)amino)-1-oxopropan-2-yl)carbamate] | – | < 3 | < 3 | > 10 | < 3 | < 3 | < 3 | < 3
